This assay addresses T1, CFTR (F508del/MF-HBE cells) (Homo sapiens, UniProt P13569, DEL508-508).
T1 construct: human bronchial epithelial (HBE) cells derived from CF subjects heterozygous for F508del and a minimal function CFTR mutation (F508del/MF-HBE); endogenous in cells; host or cells: primary human bronchial epithelial (HBE) cells from CF subjects, genotype F508del/minimal function
Briefly: Ussing chamber assay of CFTR-mediated short-circuit currents (potentiator identification). Format: cell-based. Particulars: CFTR-mediated Isc, 18-24 h incubation at 37° C. with 10 μM (14S)-8-[3-(2-{dispiro[2.0.2.1]heptan-7-yl}ethoxy)-1H-pyrazol-1-yl]-... corrector, 20% human serum. On the procedure: Ussing Chamber Assay of CFTR-Mediated Short-Circuit Currents
Ussing chamber experiments were performed using human bronchial epithelial (HBE) cells derived from CF subjects heterozygous for F508del and a minimal function CFTR mutation (F508del/MF-HBE) and cultured as previously described (Neuberger T, Burton B, Clark H, Van Goor F Methods Mol Biol 2011:741:39-54). After four days the apical media was removed, and the cells were grown at an air liquid interface for >14 days prior to use.
To isolate the CFTR-mediated short-circuit (Isc) current, F508del/MF-HBE grown on Costar® Snapwell™ cell culture inserts were mounted in an Ussing chamber and the transepithelial ISC was measured under voltage-clamp recording conditions (Vhold=0 mV) at 37° C. The basolateral solution contained (in mM) 145 NaCl, 0.83 K2HPO4, 3.3 KH2PO4, 1.2 MgCl2, 1.2 CaCl2, 10 Glucose, 10 HEPES (pH adjusted to 7.4 with NaOH) and the apical solution contained (in mM) 145 NaGluconate, 1.2 MgCl2, 1.2 CaCl2, 10 glucose, 10 HEPES (pH adjusted to 7.4 with NaOH) and 30 μM amiloride to block the epithelial sodium channel. Forskolin (20 μM) was added to the apical surface to activate CFTR, followed by apical addition of a CFTR inhibitor cocktail consisting of BPO, GlyH-101 and CFTR inhibitor 172 (each at 20 μM final assay concentration) to specifically isolate CFTR currents. The CFTR-mediated Isc (μA/cm^2) for each condition was determined from the peak forskolin response to the steady-state current following inhibition.
Identification of Potentiator Compounds
The activity of the CFTR potentiator compounds on the CFTR-mediated Isc was determined in Ussing chamber studies as described above. The F508del/MF-HBE cell cultures were incubated with the potentiator compounds at a range of concentrations in combination with 10 μM (14S)-8-[3-(2-{dispiro[2.0.2.1]heptan-7-yl}ethoxy)-1H-pyrazol-1-yl]-12,12-dimethyl-2λ^6-thia-3,9,11,18,23-pentaazatetracyclo[17.3.1.111,14.05,10]tetracosa-1(22),5,7,9,19(23),20-hexaene-2,2,4-trione for 18-24 hours at 37° C. and in the presence of 20% human serum. The concentration of potentiator compounds and (14S)-8-[3-(2-{dispiro[2.0.2.1]heptan-7-yl}ethoxy)-1H-pyrazol-1-yl]-12,12-dimethyl-2λ^6-thia-3,9,11,18,23-pentaazatetracyclo[17.3.1.111,14.05,10]tetracosa-1(22),5,7,9,19(23),20-hexaene-2,2,4-trione used during the 18-24 hours incubations was kept constant throughout the Ussing chamber measurement of the CFTR-mediated Isc to ensure compounds were present throughout the entire experiment. The efficacy and potency of the putative F508del potentiators was compared to that of the known Vertex potentiator, ivacaftor (N-[2,4-bis(1,1-dimethylethyl)-5-hydroxyphenyl]-1,4-dihydro-4-oxoquinoline-3-carboxamide).
T1 sequence (P13569 with tags, fused parts or gaps DEL508-508): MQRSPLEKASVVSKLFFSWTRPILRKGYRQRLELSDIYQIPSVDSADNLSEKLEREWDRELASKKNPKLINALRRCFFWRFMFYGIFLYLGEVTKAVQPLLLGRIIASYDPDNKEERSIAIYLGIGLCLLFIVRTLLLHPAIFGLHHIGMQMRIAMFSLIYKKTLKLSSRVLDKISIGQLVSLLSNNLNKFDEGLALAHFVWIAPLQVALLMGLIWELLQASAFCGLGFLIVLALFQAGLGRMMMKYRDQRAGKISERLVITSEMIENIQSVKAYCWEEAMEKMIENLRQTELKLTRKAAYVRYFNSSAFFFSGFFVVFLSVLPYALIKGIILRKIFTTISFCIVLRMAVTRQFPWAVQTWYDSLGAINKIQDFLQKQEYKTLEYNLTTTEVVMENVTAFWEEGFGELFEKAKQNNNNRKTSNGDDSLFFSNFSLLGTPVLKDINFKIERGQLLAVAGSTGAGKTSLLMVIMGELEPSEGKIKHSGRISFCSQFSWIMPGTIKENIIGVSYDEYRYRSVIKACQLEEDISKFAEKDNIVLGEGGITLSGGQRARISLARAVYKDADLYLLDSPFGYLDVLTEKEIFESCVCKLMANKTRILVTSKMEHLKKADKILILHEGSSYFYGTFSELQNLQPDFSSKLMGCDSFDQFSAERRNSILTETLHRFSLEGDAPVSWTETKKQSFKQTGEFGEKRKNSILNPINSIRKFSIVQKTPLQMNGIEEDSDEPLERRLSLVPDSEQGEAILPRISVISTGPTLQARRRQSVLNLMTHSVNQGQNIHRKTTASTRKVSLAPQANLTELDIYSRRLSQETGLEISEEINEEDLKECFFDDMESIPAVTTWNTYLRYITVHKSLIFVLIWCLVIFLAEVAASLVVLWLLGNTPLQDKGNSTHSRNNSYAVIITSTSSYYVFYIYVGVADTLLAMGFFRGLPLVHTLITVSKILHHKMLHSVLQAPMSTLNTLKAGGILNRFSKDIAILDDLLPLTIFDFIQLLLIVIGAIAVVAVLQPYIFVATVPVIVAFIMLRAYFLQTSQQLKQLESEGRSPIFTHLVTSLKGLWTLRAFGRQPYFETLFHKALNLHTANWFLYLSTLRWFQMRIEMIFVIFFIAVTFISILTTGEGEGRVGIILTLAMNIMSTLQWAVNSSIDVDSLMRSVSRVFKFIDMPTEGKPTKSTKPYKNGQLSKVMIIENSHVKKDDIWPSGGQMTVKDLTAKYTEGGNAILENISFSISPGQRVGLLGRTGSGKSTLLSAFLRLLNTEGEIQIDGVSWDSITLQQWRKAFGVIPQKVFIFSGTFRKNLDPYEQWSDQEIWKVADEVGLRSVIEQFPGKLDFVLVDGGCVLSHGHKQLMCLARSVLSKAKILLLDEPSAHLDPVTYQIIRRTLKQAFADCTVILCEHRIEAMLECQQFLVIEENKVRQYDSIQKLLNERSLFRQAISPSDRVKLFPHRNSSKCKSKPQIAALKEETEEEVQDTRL
In the case of `C[C@@H]1CCCC(O)C[C@](O)(C(F)(F)F)C2=NN=C(O2)c2nc(c(C(F)(F)F)cc2N)O1` (single isomer, unassigned) [Compound 53], the EC50 was less than 500 nM.

In the case of `C[C@@H]1CCCCC(O)C(O)(C(F)(F)F)C2=NN=C(O2)c2nc(c(C(F)(F)F)cc2N)O1` (single isomer, unassigned) [Compound 56], the half-maximal effective concentration (EC50) was greater than 1000 nM.

On to `C[C@@H]1CCCCC(O)C(O)(C(F)(F)F)C2=NN=C(O2)c2nc(c(C(F)(F)F)cc2N)O1` (single isomer, unassigned) [Compound 57], for which the EC50 is less than 500 nM.

Turning to `C[C@@H]1CCCCC(O)C(O)(C(F)(F)F)C2=NN=C(O2)c2nc(c(C(F)(F)F)cc2N)O1` (single isomer, unassigned) [Compound 62], the EC50 was less than 500 nM.

In the case of `C[C@@H]1CC2CC2CC[C@](O)(C(F)(F)F)C2=NN=C(O2)c2nc(c(C(F)(F)F)cc2N)O1` (single isomer, unassigned) [Compound 63], the concentration giving a half-maximal response (EC50) was less than 500 nM.

In the case of `C[C@@H]1CC2CC2CC[C@](O)(C(F)(F)F)C2=NN=C(O2)c2nc(c(C(F)(F)F)cc2N)O1` (single isomer, unassigned) [Compound 64], the concentration giving a half-maximal response (EC50) is less than 500 nM.

In the case of `Nc1cc(C(F)(F)F)c2nc1-c1nnc(o1)[C@@](O)(C(F)(F)F)CCCCCCO2` [Compound 5, (6R)-17-amino-6,15-bis(trifluoromethyl)-13,19-dioxa-3,4,18-triazatricyclo[12.3.1.12,5]nonadeca-1(18),2,4,14,16-pentaen-6-ol], the concentration for a half-maximal effect (EC50) is less than 500 nM.

Consider `Nc1cc(C(F)(F)F)c2nc1-c1nnc(o1)[C@](O)(C(F)(F)F)CCCCCCO2` [Compound 6, (6S)-17-amino-6,15-bis(trifluoromethyl)-13,19-dioxa-3,4,18-triazatricyclo[12.3.1.12,5]nonadeca-1(18),2,4,14,16-pentaen-6-ol], for which the EC50 was greater than 1000 nM.

As to `CC1CCCCCC(O)(C(F)(F)F)C2=NN=C(O2)c2nc(c(C(F)(F)F)cc2N)O1` (stereo not drawn) [Compound 7, 17-amino-12-methyl-6,15-bis(trifluoromethyl)-13,19-dioxa-3,4,18-triazatricyclo[12.3.1.12,5]nonadeca-1(18),2,4,14,16-pentaen-6-ol], the EC50 was less than 500 nM.

For the compound `CC1CCCCCC(O)(C(F)(F)F)C2=NN=C(O2)c2nc(c(C(F)(F)F)cc2N)O1` (stereo not drawn) [Compound 8, 17-amino-12-methyl-6,15-bis(trifluoromethyl)-13,19-dioxa-3,4,18-triazatricyclo[12.3.1.12,5]nonadeca-1(18),2,4,14,16-pentaen-6-ol], the EC50 is less than 500 nM.

With `C[C@@H]1CCCCC[C@](O)(C(F)(F)F)C2=NN=C(O2)c2nc(c(C(F)(F)F)cc2N)O1` [Compound 11, (6R,12R)-17-amino-12-methyl-6,15-bis(trifluoromethyl)-13,19-dioxa-3,4,18-triazatricyclo[12.3.1.12,5]nonadeca-1(18),2,4,14,16-pentaen-6-ol], the EC50 is less than 500 nM.

For `C[C@@H]1CCCCC[C@@](O)(C(F)(F)F)C2=NN=C(O2)c2nc(c(C(F)(F)F)cc2N)O1` [Compound 12, (6S,12R)-17-Amino-12-methyl-6,15-bis(trifluoromethyl)-13,19-dioxa-3,4,18-triazatricyclo[12.3.1.12,5]nonadeca-1(18),2,4,14,16-pentaen-6-ol], the EC50 was less than 500 nM.

Take `C[C@H]1CCCCC[C@@](O)(C(F)(F)F)C2=NN=C(O2)c2nc(c(C(F)(F)F)cc2N)O1` [Compound 13, (6S,12S)-17-amino-12-methyl-6,15-bis(trifluoromethyl)-13,19-dioxa-3,4,18-triazatricyclo[12.3.1.12,5]nonadeca-1(18),2,4,14,16-pentaen-6-ol]: the EC50 is less than 500 nM.

Turning to `C[C@H]1CCCCC[C@](O)(C(F)(F)F)C2=NN=C(O2)c2nc(c(C(F)(F)F)cc2N)O1` [Compound 14, (6R,12S)-17-amino-12-methyl-6,15-bis(trifluoromethyl)-13,19-dioxa-3,4,18-triazatricyclo[12.3.1.12,5]nonadeca-1(18),2,4,14,16-pentaen-6-ol], the EC50 was less than 500 nM.

As to `Nc1cc(C(F)(F)F)c2nc1-c1nnc(o1)C(O)(C(F)(F)F)CCCCc1ccccc1O2` (stereo not drawn) [Compound 17, 21-amino-6,19-bis(trifluoromethyl)-17,23-dioxa-3,4,22-triazatetracyclo[16.3.1.12,5.011,16]tricosa-1(22),2,4,11(16),12,14,18,20-octaen-6-ol], the EC50 was less than 500 nM.

Take `C[C@@H]1CCCc2ccc(F)c(c2)C(O)(C(F)(F)F)C2=NN=C(O2)c2nc(c(C(F)(F)F)cc2N)O1` (stereo partly drawn) [Compound 18, (15R)-20-amino-8-fluoro-15-methyl-6,18-bis(trifluoromethyl)-16,23-dioxa-3,4,21-triazatetracyclo[15.3.1.12,5.17,11]tricosa-1(21),2,4,7(22),8,10,17,19-octaen-6-ol]: the EC50 was less than 500 nM.

For the compound `Nc1cc(C(F)(F)F)c2nc1-c1nnc(o1)[C@@](O)(C(F)(F)F)CCCCCC[S@+]2[O-]` [Compound 19, (6R,13S)-17-Amino-13-oxido-6,15-bis(trifluoromethyl)-19-oxa-13-thionia-3,4,18-triazatricyclo[12.3.1.12,5]nonadeca-1(18),2,4,14,16-pentaen-6-ol], the EC50 was less than 500 nM.

With `Nc1cc(C(F)(F)F)c2nc1-c1nnc(o1)[C@@](O)(C(F)(F)F)CCCCCC[S@@+]2[O-]` [Compound 20, (6R,13R)-17-amino-13-oxido-6,15-bis(trifluoromethyl)-19-oxa-13-thionia-3,4,18-triazatricyclo[12.3.1.12,5]nonadeca-1(18),2,4,14,16-pentaen-6-ol], the concentration giving a half-maximal response (EC50) lay within 500 to 1000 nM.

For `Nc1cc(C(F)(F)F)c2nc1-c1nnc(o1)[C@@](O)(C(F)(F)F)CCCCCCS2` [Compound 21, (6R)-17-Amino-6,15-bis(trifluoromethyl)-19-oxa-13-thia-3,4,18-triazatricyclo[12.3.1.12,5]nonadeca-1(18),2,4,14,16-pentaen-6-ol], the half-maximal effective concentration (EC50) is less than 500 nM.

As to `Nc1cc(C(F)(F)F)c2nc1-c1nnc(o1)[C@@](O)(C(F)(F)F)CCCCCS2` [Compound 22, (6R)-16-amino-6,14-bis(trifluoromethyl)-18-oxa-12-thia-3,4,17-triazatricyclo[11.3.1.12,5]octadeca-1(17),2,4,13,15-pentaen-6-ol], the EC50 was less than 500 nM.

Regarding `C[C@@H]1CC(=O)CCC[C@](O)(C(F)(F)F)C2=NN=C(O2)c2nc(c(C(F)(F)F)cc2N)O1` [Compound 25, (6R,12R)-17-amino-6-hydroxy-12-methyl-6,15-bis(trifluoromethyl)-13,19-dioxa-3,4,18-triazatricyclo[12.3.1.12,5]nonadeca-1(18),2,4,14,16-pentaen-10-one], the EC50 is greater than 1000 nM.

In the case of `C[C@@H]1CCC(=O)CC[C@](O)(C(F)(F)F)C2=NN=C(O2)c2nc(c(C(F)(F)F)cc2N)O1` [Compound 26, (6R,12R)-17-amino-6-hydroxy-12-methyl-6,15-bis(trifluoromethyl)-13,19-dioxa-3,4,18-triazatricyclo[12.3.1.12,5]nonadeca-1(18),2,4,14,16-pentaen-9-one], the EC50 is less than 500 nM.

`CC1CCC(O)(C(F)(F)F)C2=NN=C(O2)c2nc(c(C(F)(F)F)cc2N)Oc2cccc1c2` (stereo not drawn) [Compound 29, 19-amino-9-methyl-6,17-bis(trifluoromethyl)-15,22-dioxa-3,4,20-triazatetracyclo[14.3.1.12,5.110,14]docosa-1(20),2,4,10(21),11,13,16,18-octaen-6-ol]: the EC50 is less than 500 nM.

Take `Nc1cc(C(F)(F)F)c2nc1-c1nnc(o1)[C@@](O)(C(F)(F)F)CCCCC[C@H](CO)O2` [Compound 36, (6R,12R)-17-amino-12-(hydroxymethyl)-6,15-bis(trifluoromethyl)-13,19-dioxa-3,4,18-triazatricyclo[12.3.1.12,5]nonadeca-1(18),2,4,14,16-pentaen-6-ol]: the EC50 is less than 500 nM.

What is called EC50 is the concentration at which the effect is half-maximal.

The values above are taken from US12269831B2, “Modulators of cystic fibrosis transmembrane conductance regulator” (Vertex Pharmaceuticals Incorporated, priority 2020, dated 2025).
